Test results published in patent US20070276032A1, “Use of 8-Prenylnaringenin for Hormone Replacement Therapy” (priority 2003, published 2007).

Tests used:
[1] = tested on: ovariectomized rats; assay: Relative uterine weight, 2S(−) 8-PN in ovariectomized rats (Example 3); assay type: in vivo, Sprague-Dawley rats; settings: OVX rats; for Relative uterus weight, Mean: s.c. 7 times a week
Experimental: The aim of the study was to examine bone and uterine effects of a 4-week treatment with 2S(−) 8-Prenylnaringenin (8-PN) in 3-month-old ovariectomized rats. […] At the end of the study, uterine weight and ex vivo bone mineral density (BMD) of tibia were measured.
(§1) A total of 30 female 13-14-week-old Sprague-Dawley rats were used in the study. The animals were randomized into 5 groups, with 6 rats/group. Group 1 was sham-operated (SHAM) and groups 2-5 were ovariectomized (OVX).
Treatments with the vehicle or test substance started on the day following operation. […] The animals were sacrificed one day after the last dosing. At the end of the study, left tibiae were excised for ex vivo BMD measurement (pQCT) at proximal tibia and uteri were excised for the determination of absolute and relative weights. In addition, samples for the determination of 2S(−)8-Prenylnaringenin concentration were taken from all dosing solutions on the day when they were prepared and on the last day of use. The data of body weights, relative uterine weights and BMD were analyzed with one-way analysis of variance.
Relative uterine weight was calculated as percentage of body weight

[2] = Body weight, 2S(−) 8-PN in ovariectomized rats (Example 3); assay type: in vivo, Sprague-Dawley rats; settings: OVX rats, s.c. once a day, 7 times a week, 4 weeks
Excerpt: as §1
The mean body weight of the animals was 271 g (SD 9, SE 2) before operation. Treatments with the vehicle or test substance started on the day following operation. The animals in the SHAM group received the vehicle, 30% hydroxypropyl-β-cyclodextrin s.c., and in the OVX groups either the vehicle or 2S(−) 8-PN at nominal doses of 0.67 mg/kg/d, 1.77 mg/kg/d or 18 mg/kg/d s.c. Treatments continued for 4 weeks; the dosing frequency was seven times a week. The animals were sacrificed one day after the last dosing. At the end of the study, left tibiae were excised for ex vivo BMD measurement (pQCT) at proximal tibia and uteri were excised for the determination of absolute and relative weights. In addition, samples for the determination of 2S(−)8-Prenylnaringenin concentration were taken from all dosing solutions on the day when they were prepared and on the last day of use. The data of body weights, relative uterine weights and BMD were analyzed with one-way analysis of variance.

[3] = tested on: ovariectomized rats; assay: Uterus histology, luminal epithelium cell height in ovariectomized rats (Example 3); assay type: in vivo, Sprague-Dawley rats; settings: ovariectomized rat; at 1.77 mg/kg and 18 mg/kg
Experimental: A post-study histological examination was performed. The formalin fixed uteri were embedded in paraffin, cut into 5 μm transverse sections and were stained with haematoxylin eosin. The sections were then evaluated quantitatively for luminal epithelium cell height.

[4] = tested on: ovariectomized rats; assay: Trabecular density of proximal tibia, 8-PN racemic, 2S(−) 8-PN and estradiol hemihydrate in ovariectomized rats (Example 4); assay type: in vivo, Sprague-Dawley rats; settings: OVX rats; s.c. 28 days; 20 mg/kg/d in HP-β-CD
Experimental: (§2) The aim of the study was to directly compare the effects of Prenylnaringenin (racemate) and 2S(−) 8-Prenylnaringenin to the effects of estradiol hemihydrate on bone mineral density and uterine weight on 3-month-old ovariectomized rats using identical formulations. In addition, the effects of estradiolhemihydrate in two vehicles (oily, aqueous) were examined for influence of formulations. The substances were administered subcutaneously(s.c.) seven days a week beginning the day after ovariectomy. At the end of the study, uterine weight and bone mineral density (BMD) of tibia were measured.
(§3) Forty-one female Sprague-Dawley rats, 12-14 weeks of age were randomized into six groups, 6-8 animals in each. Five groups were ovariectomized (OVX) and one group was sham-operated (SHAM). Treatments started on the day following operation and continued for 28 days. The animals were treated s.c. once a day seven times a week as follows. Group 1 (SHAM vehicle group) and group 2 (OVX vehicle group) were given the vehicle 30% hydroxypropyl-β-cyclodextrin (HP-β-CD). Groups 3 and 4 were administered 4 μg/kg/d of estradiol hemihydrate in vehicle benzyl benzoate/ricinus oil (B/R) and in vehicle HP-β-CD, respectively. Groups 5 and 6 were given 20 mg/kg/d of 2S(−)8-Prenylnaringenin and racemic 8-Prenylnaringenin, respectively, both in vehicle HP-β-CD. At the end of the study, left tibiae were excised for the ex vivo BMD […] were taken from all dosing solutions on the first and last day of use.
(§4) Vehicle 1 (used in the groups 1 and 2): 30% hydroxypropyl-β-cyclodextrin and 0.3% NaCl (w/v), 5% ethanol (v/v) in Aqua sterilisata, pH 7.4.
(§5) Vehicle 2 (used when preparing dosing solutions of the groups 4, 5 and 6): 30% hydroxypropyl-β-cyclodextrin and 0.3% NaCl (w/v) in Aqua sterilisata, pH 7.4.
(§6) Vehicle 3 (used when preparing a dosing solution of the group 3): benzyl benzoate/ricinus oil (B/R) 1+4, v/v.

[5] = Body weight, 8-PN racemic, 2S(−) 8-PN and estradiol hemihydrate in ovariectomized rats (Example 4); assay type: in vivo, Sprague-Dawley rats; settings: OVX rats; s.c. once a day, 28 days; 20 mg/kg/d in HP-β-CD
Experimental: as §2, §3, §4, §5, §6

[6] = tested on: ERE-Luc; assay: Estrogenic activity in the estrogen reporter mouse ERE-Luc model, luciferase activity in organs (Example 5); assay type: in vivo, mice
[7] = ERE-Luc mice, at the dosages used

## CC(C)=CCc1c(O)cc(O)c2c1O[C@H](c1ccc(O)cc1)CC2=O [2S(−)8-PN, 2S(−) 8-Prenylnaringenin]
[1]; at the same bone effective dose
  effect on the uterus compared with 17β-estradiol: much lower effect on the uterus than 17β-estradiol at the same bone effective dose
[1]; dose range 0.67-18 mg/kg/d s.c., 4 weeks
  increase of relative uterine weight compared to ovariectomy: less than twofold
[1]; dose range 0.67-18 mg/kg/d, SHAM group 0.194%
  relative uterine weights: 0.054-0.065%
[1]; 4 weeks, 0.67 mg/kg/d
  Relative uterus weight, Mean: 0.054%
[1]; 4 weeks, 1.77 mg/kg/d
  Relative uterus weight, Mean: 0.063%
[1]; 4 weeks, 18 mg/kg/d
  Relative uterus weight, Mean: 0.065%
[2]; 0.67 mg/kg/d
  Body weight at the end (bw4b): 323 (11) g
  The change in Body weight (bw4b-bw0): 53 (7) g
[2]; 1.77 mg/kg/d
  Body weight at the end (bw4b): 305 (7) g
  The change in Body weight (bw4b-bw0): 35 (5) g
[2]; 18 mg/kg/d
  Body weight at the end (bw4b): 304 (5) g
  The change in Body weight (bw4b-bw0): 33 (4) g
[3]
  luminal epithelial cell height: weak stimulation of luminal epithelial cell height
[4]
  Trabecular density at left proximal tibia, Mean: 352 mg/cm3
  Trabecular density at left proximal tibia, Median: 352 mg/cm3
[5]
  Body weight at The end (bw4b): 289(6) g
  The change in Body weight (bw4b-bw0): 24(2) g
[6]; [7]
  agonist profile in bone and prostate compared with the other compounds: much stronger agonist profile in bone and prostate when compared to the other compounds
  estrogenic activity in liver compared with the other compounds: almost identical to that of the other compounds
[6]; male ERE-Luc mice, i.p. 30 mg/kg, six hours after the injection, controls 2.8
  Luciferase activity, Bone: 5.5 ** arbitrary units
[6]; male ERE-Luc mice, i.p. 30 mg/kg, six hours after the injection, controls 6.5
  Luciferase activity, Brain: 8.0 arbitrary units
[6]; male ERE-Luc mice, i.p. 30 mg/kg, six hours after the injection, controls 7.6
  Luciferase activity, Liver: 12.5 ** arbitrary units
